Reference: paper PMC3319004 (Science Translational Medicine, 2011)

Tests used:
R1275Q xenografts = test: In vivo activity of GSK1838705A in xenografts
[1] = test system: NB1643 (R1275Q) xenografts; test: In vivo tumor growth inhibition, NB1643 xenografts; parameters: species or system CB17 scid mice
[2] = test system: SH-SY5Y (F1174L) xenografts
NBSD (F1174L) xenografts = test: In vivo tumor growth inhibition, NBSD xenografts; parameters: species or system CB17 scid mice
F1174L ALK-TKD = F1174L ALK-TKD (Homo sapiens, UniProt Q9UM73, F1174L)
[3] = 100mg/kg/day oral gavage for 4 weeks

For CNC(=O)c1c(F)cccc1Nc1nc(Nc2cc3c(cc2OC)CCN3C(=O)CN(C)C)nc2[nH]ccc12 [GSK1838705A], the “in vivo activity in xenografts” value (R1275Q xenografts) was “only showed significant in vivo activity against R1275Q xenografts”.
With C[C@@H](Oc1cc(-c2cnn(C3CCNCC3)c2)cnc1N)c1c(Cl)ccc(F)c1Cl [crizotinib] the tumor response [1, 3] was “tumor regression within three weeks”, the “tumor response over the fourth week of dosing” value ([1]; 100mg/kg/day oral gavage, p < 0.0001) was “complete regression was sustained” and the tumor regression [2, 3] was “No tumor regression was observed”. The “extension of time taken to reach the study endpoint (tumor volume ≥ 1.5 cm^3)” value ([2]; 100mg/kg/day, average, p < 0.0001) was 7.7 days, the tumor volume (NBSD (F1174L) xenografts; 100mg/kg/day oral gavage for 4 weeks, p = 0.29) was “failed to reduce tumor volume” and the “extension of time to reach the study endpoint” value (NBSD (F1174L) xenografts; 100mg/kg/day, mean, p = 0.04) was 3.7 days.
In the case of CN[C@@H]1C[C@H]2O[C@@](C)([C@@H]1OC)n1c3ccccc3c3c4c(c5c6ccccc6n2c5c31)C(=O)NC4 [staurosporine], the “in vitro inhibition of ALK-TKD, F1174L compared with R1275Q-mutated ALK-TKD” value (F1174L ALK-TKD) is reported as “impaired by the F1174L mutation”.
